Assays:
EGFR vIII Ba/F3 = assay: CellTiter-Glo cell viability, EGFR vIII Ba/F3; assay type: cell-based; conditions: Mus musculus, BaF3, 72 h, read-out: EGFR vIII Ba/F3 CTG IC50 /
Protocol: (§1) The CellTiter-Glo Luminescent Cell Viability Assay (Promega) is a homogeneous method of determining the number of viable cells in culture. It is based on quantification of ATP, indicating the presence of metabolically active cells. Cells are seeded on day 1 at cell numbers that assure assay linearity and optimal signal intensity. After incubation for 24h in humidified chambers at 37°C and 5% CO2, compounds in DMSO are added at different concentrations. Cells are further incubated for 72 h at 37°C and 5% CO2. Cells treated with the compound vehicle DMSO are used as positive controls and cells treated with 10 µM Staurosporine serve as negative controls. At day 5 the CellTiter Glo Reagent is prepared according to the instructions of the kit (Promega Inc.): Reagent is mixed 1:1 with cell culture medium. Thereon, mixture and assay plates are equilibrated at room temperature for 20 min. Equal volumes of the reagent-medium-mixture is added to the volume of culture medium present in each well. The plates are mixed at ∼200 rpm for 2 minutes on an orbital shaker. The microplates are then incubated at room temperature for 10 minutes for stabilization of the luminescent signal. Following incubation the luminescence is recorded on a Victor microplate reader (Perkin Elmer) using a 200 ms integration time. The data is then analyzed with Excel using the XLFIT Plugin (dose response Fit 205) for IC50-determination. As quality control the Z'-factor is calculated from 16 positive and negative control values. Only assay results showing a Z'-factor ≥ 0.5 are used for further analysis.

HER2 INS YVMA = biological target: T1, HER2 INS YVMA (Homo sapiens, UniProt P04626, INS775YVMA); assay: Lance Kinase Activity Assay, Her2 Exon 20 InsYVMA; conditions: biochemical Lance assay
T1 construct: purchased DPF
T1 sequence (P04626 with tags, fused parts or gaps INS775YVMA): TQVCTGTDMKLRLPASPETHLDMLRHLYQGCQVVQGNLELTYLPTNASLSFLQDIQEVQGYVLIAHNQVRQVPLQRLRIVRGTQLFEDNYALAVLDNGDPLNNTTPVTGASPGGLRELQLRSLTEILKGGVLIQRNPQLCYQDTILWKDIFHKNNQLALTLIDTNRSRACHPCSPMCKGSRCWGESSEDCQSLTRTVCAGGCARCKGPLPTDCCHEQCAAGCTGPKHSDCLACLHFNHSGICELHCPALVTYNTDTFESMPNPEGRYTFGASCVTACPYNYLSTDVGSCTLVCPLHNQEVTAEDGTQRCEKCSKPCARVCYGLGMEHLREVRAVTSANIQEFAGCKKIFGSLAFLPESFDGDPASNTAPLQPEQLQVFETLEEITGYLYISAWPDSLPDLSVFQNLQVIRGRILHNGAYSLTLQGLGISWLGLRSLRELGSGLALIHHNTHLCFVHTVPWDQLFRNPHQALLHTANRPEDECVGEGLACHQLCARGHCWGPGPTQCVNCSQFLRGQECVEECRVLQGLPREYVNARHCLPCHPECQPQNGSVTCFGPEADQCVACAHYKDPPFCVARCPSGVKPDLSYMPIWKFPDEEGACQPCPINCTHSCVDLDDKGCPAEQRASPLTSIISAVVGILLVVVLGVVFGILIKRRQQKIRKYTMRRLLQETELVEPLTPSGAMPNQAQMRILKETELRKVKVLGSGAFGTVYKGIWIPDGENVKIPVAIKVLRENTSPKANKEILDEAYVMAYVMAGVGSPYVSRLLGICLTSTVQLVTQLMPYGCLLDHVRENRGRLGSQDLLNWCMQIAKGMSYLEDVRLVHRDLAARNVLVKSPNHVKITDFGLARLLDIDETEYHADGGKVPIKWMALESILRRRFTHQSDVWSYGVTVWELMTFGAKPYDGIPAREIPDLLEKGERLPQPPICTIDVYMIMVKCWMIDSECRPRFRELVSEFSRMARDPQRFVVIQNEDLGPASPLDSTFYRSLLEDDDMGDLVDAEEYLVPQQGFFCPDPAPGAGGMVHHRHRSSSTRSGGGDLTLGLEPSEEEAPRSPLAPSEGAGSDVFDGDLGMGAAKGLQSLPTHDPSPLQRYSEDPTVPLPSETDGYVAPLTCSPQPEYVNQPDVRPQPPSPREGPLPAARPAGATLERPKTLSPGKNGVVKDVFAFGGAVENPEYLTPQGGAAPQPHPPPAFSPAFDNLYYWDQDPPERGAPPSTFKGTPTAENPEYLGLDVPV
Protocol: This protocol describes how the Lance Kinase Activity Assay was performed to determine IC50 values of compounds of general formula (I) against HER2 INS YVMA. The principle behind this enzymatic assay is based upon the phosphorylation of the Ulight-peptide substrate. It is detected by using a specific EU-labeled anti-phospho peptide antibody. The binding of the Eu labeled anti-phospho peptide antibody to the phosphorylated ULight labeled peptide gives rise to a FRET-signal. Binding of an inhibitor to the kinase prevents phosphorylation of the Ulight-substrate, resulting in a loss of FRET. In table 2 is summarized the relevant information for the LANCE assay. Table 2: Reagents, stock concentrations and final assay concentrations for Her2 INS YVMA.
The compounds of general formula (I) summarized in Table 3 were serial diluted from a 10 mM DMSO stock solution 1:3 over 8 steps in a total volume of 20 µl. For every sample, 8 µl of kinase-substrate mix was transferred into a suitable assay plate (e.g. Corning #3673). Compound was added via pintool transfer (10nl/well) using a Biomek FX robot (BeckmanCoulter). Reaction was started by addition of 2µl ATP working solution and mixed using variomag teleshaker (Thermo Fischer Scientific). After 1 h incubation at room temperature the reaction was stopped with 10µl detection mix containing the Eu-labeled phosphospecific antibody and 10mM EDTA. After a second incubation period of 1 h at room temperature the FRET signal was measured at 340 nm excitation, 665 nm and 615 nm emission (for the ULight-substrate and Eu-AB, respectively) with an Envision spectrophotometer (Perkin Elmer, Waltham, MA, USA) with 50 µs delay and 300 µs integration time. IC50 values were determined from the sigmoidal dose response curves with the software Quattro Workflow (Quattro GmbH, Munich, Germany).

EGFR wt = EGFR wt (Homo sapiens, UniProt P00533); assay: Lance assay, EGFR wt; conditions: biochemical Lance assay
Sequence of EGFR wt (P00533 25-1210): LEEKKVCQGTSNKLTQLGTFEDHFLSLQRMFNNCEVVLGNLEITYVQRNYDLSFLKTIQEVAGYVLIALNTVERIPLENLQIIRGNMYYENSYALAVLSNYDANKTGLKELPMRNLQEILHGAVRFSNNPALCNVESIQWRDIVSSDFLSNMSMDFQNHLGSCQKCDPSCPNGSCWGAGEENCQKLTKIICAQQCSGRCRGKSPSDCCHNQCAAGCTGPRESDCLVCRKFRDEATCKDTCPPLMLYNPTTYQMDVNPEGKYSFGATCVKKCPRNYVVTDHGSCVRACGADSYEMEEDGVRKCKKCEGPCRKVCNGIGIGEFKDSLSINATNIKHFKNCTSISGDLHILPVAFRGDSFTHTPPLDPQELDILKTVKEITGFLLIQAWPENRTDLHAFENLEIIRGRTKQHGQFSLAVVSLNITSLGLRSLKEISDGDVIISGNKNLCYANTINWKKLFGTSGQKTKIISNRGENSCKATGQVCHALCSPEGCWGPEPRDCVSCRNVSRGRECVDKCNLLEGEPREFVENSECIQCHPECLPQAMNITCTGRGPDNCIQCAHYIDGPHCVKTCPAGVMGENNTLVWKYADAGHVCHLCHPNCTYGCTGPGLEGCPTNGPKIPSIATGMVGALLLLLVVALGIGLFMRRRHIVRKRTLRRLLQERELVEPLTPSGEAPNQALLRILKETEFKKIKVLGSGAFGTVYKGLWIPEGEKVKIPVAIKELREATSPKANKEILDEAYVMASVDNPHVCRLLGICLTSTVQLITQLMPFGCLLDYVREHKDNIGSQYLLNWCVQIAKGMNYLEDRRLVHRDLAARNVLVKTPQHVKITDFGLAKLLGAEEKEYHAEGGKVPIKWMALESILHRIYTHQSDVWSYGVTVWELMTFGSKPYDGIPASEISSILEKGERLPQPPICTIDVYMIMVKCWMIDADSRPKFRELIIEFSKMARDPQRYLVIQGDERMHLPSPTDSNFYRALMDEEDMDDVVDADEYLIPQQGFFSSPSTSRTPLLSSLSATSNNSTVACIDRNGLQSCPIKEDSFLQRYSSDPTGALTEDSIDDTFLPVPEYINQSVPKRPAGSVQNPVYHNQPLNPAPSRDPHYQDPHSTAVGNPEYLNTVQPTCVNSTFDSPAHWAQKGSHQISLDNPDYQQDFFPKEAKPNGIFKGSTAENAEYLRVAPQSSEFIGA

Cuto-17 = assay: CellTiter-Glo cell viability, Cuto-17; assay type: cell-based; conditions: CUTO17, 72 h, read-out: Cuto-17 CTG IC50
Protocol: as §1

[1] = tested on: EGFR Exon 20 InsNPH Ba/F3; assay: CellTiter-Glo cell viability, EGFR Exon 20 InsNPH Ba/F3; assay type: cell-based; conditions: Mus musculus, BaF3, 72 h, read-out: EGFR Exon 20 InsNPH Ba/F3 CTG IC50
Protocol: as §1

[2] = tested on: Her2 Exon 20 InsYVMA Ba/F3; assay: CellTiter-Glo cell viability, Her2 Exon 20 InsYVMA Ba/F3; assay type: cell-based; conditions: Mus musculus, BaF3, 72 h, read-out: Her2 Exon 20 InsYVMA Ba/F3 CTG IC50
Protocol: as §1

H1975 = assay: CellTiter-Glo cell viability, H1975; assay type: cell-based; conditions: Homo sapiens, NCI-H1975, 72 h, read-out: H1975 CTG IC50
Protocol: as §1

A431 = assay: CellTiter-Glo cell viability, A431; assay type: cell-based; conditions: Homo sapiens, A-431, 72 h, read-out: A431 CTG IC50
Protocol: as §1

EGFR T790M L858R = EGFR T790M L858R (Homo sapiens, UniProt P00533, L858R/T790M); assay: Lance assay, EGFR T790M L858R; conditions: biochemical Lance assay
Sequence of EGFR T790M L858R (P00533 25-1210 T790M/L858R): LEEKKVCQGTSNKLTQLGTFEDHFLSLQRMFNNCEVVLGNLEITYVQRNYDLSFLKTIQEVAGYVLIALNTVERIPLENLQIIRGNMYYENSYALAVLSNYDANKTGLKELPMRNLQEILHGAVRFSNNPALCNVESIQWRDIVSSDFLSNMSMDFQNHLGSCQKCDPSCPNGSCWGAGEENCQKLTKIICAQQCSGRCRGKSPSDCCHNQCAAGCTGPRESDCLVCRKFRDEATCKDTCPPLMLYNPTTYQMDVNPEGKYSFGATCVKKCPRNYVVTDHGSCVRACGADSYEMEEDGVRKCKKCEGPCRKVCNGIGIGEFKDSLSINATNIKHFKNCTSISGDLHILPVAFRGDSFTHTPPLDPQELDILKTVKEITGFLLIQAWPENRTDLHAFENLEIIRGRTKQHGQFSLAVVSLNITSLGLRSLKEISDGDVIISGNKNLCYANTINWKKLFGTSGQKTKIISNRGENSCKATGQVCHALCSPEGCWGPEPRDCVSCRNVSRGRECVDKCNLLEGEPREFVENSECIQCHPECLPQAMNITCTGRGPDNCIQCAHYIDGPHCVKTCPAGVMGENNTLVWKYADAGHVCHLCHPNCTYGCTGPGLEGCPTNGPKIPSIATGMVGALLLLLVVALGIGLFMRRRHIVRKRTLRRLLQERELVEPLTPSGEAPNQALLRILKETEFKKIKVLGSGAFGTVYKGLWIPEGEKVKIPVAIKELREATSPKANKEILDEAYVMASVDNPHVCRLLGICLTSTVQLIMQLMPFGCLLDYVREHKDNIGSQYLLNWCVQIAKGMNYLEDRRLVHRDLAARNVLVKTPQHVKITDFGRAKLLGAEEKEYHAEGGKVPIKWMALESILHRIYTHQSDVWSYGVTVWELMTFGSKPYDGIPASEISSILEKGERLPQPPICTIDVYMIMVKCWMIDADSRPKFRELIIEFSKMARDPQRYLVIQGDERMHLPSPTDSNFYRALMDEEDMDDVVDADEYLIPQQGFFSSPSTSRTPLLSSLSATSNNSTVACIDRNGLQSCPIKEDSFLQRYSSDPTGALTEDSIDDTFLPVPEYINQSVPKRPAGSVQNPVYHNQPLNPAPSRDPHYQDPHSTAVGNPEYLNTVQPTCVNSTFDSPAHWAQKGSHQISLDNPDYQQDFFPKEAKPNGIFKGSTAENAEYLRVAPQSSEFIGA

EGFR (del746-750) = EGFR (del746-750) (Homo sapiens, UniProt P00533, DEL746-750); assay: Lance assay, EGFR (del746-750); conditions: biochemical Lance assay
EGFR L858R = EGFR L858R (Homo sapiens, UniProt P00533, L858R); assay: Lance assay, EGFR L858R; conditions: biochemical Lance assay
Sequence of EGFR L858R (P00533 25-1210 L858R): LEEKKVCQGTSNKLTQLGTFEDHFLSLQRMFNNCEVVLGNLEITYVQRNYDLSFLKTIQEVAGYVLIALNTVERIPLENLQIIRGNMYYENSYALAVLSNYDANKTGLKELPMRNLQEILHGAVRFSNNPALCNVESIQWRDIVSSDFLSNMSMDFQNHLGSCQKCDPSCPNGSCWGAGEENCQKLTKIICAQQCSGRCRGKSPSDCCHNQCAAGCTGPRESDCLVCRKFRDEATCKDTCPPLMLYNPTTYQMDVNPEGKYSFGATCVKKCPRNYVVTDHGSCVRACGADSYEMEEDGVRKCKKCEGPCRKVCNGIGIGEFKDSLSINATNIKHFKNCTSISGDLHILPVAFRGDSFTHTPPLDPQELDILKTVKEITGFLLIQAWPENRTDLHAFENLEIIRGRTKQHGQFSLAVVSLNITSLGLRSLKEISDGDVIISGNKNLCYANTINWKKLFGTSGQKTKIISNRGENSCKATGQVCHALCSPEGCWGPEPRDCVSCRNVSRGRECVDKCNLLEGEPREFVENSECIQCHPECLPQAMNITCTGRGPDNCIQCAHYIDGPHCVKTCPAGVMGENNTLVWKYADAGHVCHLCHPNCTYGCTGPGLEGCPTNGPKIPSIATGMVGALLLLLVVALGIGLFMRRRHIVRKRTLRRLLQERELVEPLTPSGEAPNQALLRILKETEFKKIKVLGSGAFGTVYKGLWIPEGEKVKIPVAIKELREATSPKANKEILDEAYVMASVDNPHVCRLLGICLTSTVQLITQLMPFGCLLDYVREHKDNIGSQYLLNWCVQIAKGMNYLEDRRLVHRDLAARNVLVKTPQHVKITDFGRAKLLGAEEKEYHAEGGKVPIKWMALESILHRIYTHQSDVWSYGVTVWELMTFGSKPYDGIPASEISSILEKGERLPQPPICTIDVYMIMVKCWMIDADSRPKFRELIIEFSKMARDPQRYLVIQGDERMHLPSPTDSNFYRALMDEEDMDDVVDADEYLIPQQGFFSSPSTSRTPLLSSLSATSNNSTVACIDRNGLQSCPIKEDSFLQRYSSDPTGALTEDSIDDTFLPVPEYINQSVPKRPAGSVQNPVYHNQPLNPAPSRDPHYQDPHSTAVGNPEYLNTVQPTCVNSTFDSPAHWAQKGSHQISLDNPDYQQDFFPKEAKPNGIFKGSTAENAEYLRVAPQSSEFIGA

EGFR L858R Ba/F3 = assay: CellTiter-Glo cell viability, EGFR L858R Ba/F3; assay type: cell-based; conditions: Mus musculus, BaF3, 72 h, read-out: EGFR L858R Ba/F3 CTG IC50 /
Protocol: as §1

EGFR L858R T790M Ba/F3 = assay: CellTiter-Glo cell viability, EGFR L858R T790M Ba/F3; assay type: cell-based; conditions: Mus musculus, BaF3, 72 h, read-out: EGFR L858R T790M Ba/F3 CTG IC50 /
Protocol: as §1

Row | Structure (SMILES) | IC50 (EGFR vIII Ba/F3) | IC50 (HER2 INS YVMA) | IC50 (EGFR wt) | IC50 (Cuto-17) | IC50 [1] | IC50 [2] | IC50 (H1975) | IC50 (A431) | IC50 (EGFR T790M L858R) | IC50 (EGFR (del746-750)) | IC50 (EGFR L858R) | IC50 (EGFR L858R Ba/F3) | IC50 (EGFR L858R T790M Ba/F3)
1 | C=CC(=O)Nc1cc(-c2c(-c3cnn(C4CCC4)c3)[nH]c3ncc(C(=O)OC(C)C)c(C)c23)ccc1C [Example 16, isopropyl 3-(3-acrylamido-4-methylphenyl)-2-(1-cyclobutyl-1 H-pyrazol-4-yl)-4-methyl-1H-pyrrolo[2,3-b]pyridine-5-carboxylate] | 100 to 500 nM | 500 to 1000 nM | ≤ 50 nM | 500 to 1000 nM | 100 to 500 nM | 100 to 500 nM | 500 to 1000 nM | 1000 to 10000 nM | 100 to 500 nM | – | – | – | –
2 | C=CC(=O)Nc1cc(-c2c(-c3cnn(CCN4CCOCC4)c3)[nH]c3ncc(C(=O)OC(C)C)c(C)c23)ccc1C [Example 17, isopropyl 3-(3-acrylamido-4-methylphenyl)-4-methyl-2-(1-(2-morpholinoethyl)-1 H-pyrazol-4-yl)-1 H-pyrrolo[2,3-b]pyridine-5-carboxylate] | 100 to 500 nM | ≤ 50 nM | ≤ 50 nM | 100 to 500 nM | 100 to 500 nM | 100 to 500 nM | 500 to 1000 nM | 1000 to 10000 nM | ≤ 50 nM | – | – | – | –
3 | C=CC(=O)Nc1cc(-c2c(-c3cnn(C4COC4)c3)[nH]c3ncc(C(=O)OC(C)C)c(C)c23)ccc1C [Example 19, isopropyl 3-(3-acrylamido-4-methylphenyl)-4-methyl-2-(1-(oxetan-3-yl)-1 H-pyrazol-4-yl)-1 H-pyrrolo[2,3-b]pyridine-5-carboxylate] | 100 to 500 nM | ≤ 50 nM | ≤ 50 nM | 100 to 500 nM | ≤ 50 nM | 100 to 500 nM | 100 to 500 nM | 1000 to 10000 nM | ≤ 50 nM | – | – | – | –
4 | C=CC(=O)Nc1cc(-c2c(-c3cn[nH]c3)[nH]c3ncc(C(=O)OC(C)C)c(C)c23)ccc1C [Example 20, isopropyl 3-(3-acrylamido-4-methylphenyl)-4-methyl-2-(1 H-pyrazol-4-yl)-1 H-pyrrolo[2,3-b]pyridine-5-carboxylate] | 100 to 500 nM | 50 to 100 nM | ≤ 50 nM | 500 to 1000 nM | 100 to 500 nM | 500 to 1000 nM | 1000 to 10000 nM | 1000 to 10000 nM | ≤ 50 nM | – | – | – | –
5 | C=CC(=O)Nc1cc(-c2c(-c3cnn(CC4CC4)c3)[nH]c3ncc(C(=O)OC(C)C)c(C)c23)ccc1C [Example 21, isopropyl 3-(3-acrylamido-4-methylphenyl)-2-(1-(cyclopropylmethyl)-1 H-pyrazol-4-yl)-4-methyl-1 H-pyrrolo[2,3-b]pyridine-5-carboxylate] | 100 to 500 nM | 50 to 100 nM | ≤ 50 nM | 100 to 500 nM | 50 to 100 nM | 100 to 500 nM | 100 to 500 nM | 1000 to 10000 nM | ≤ 50 nM | – | – | – | –
6 | C=CC(=O)Nc1cc(-c2c(-c3cnn(CCO)c3)[nH]c3ncc(C(=O)OC(C)C)c(C)c23)ccc1C [Example 23, isopropyl 3-(3-acrylamido-4-methylphenyl)-2-(1-(2-hydroxyethyl)-1H-pyrazol-4-yl)-4-methyl-1 H-pyrrolo[2,3-b]pyridine-5-carboxylate] | 50 to 100 nM | 100 to 500 nM | ≤ 50 nM | – | 100 to 500 nM | 500 to 1000 nM | – | 1000 to 10000 nM | 50 to 100 nM | ≤ 50 nM | ≤ 50 nM | ≤ 50 nM | 100 to 500 nM
7 | C=CC(=O)Nc1cc(-c2c(-c3cnn(CC(C)O)c3)[nH]c3ncc(C(=O)OC(C)C)c(C)c23)ccc1C (centres unmarked) [Example 24, isopropyl 3-(3-acrylamido-4-methylphenyl)-2-(1-(2-hydroxypropyl)-1H-pyrazol-4-yl)-4-methyl-1 H-pyrrolo[2,3-b]pyridine-5-carboxylate] | 50 to 100 nM | 100 to 500 nM | ≤ 50 nM | – | 100 to 500 nM | 500 to 1000 nM | – | 1000 to 10000 nM | 50 to 100 nM | ≤ 50 nM | ≤ 50 nM | ≤ 50 nM | 50 to 100 nM
8 | C=CC(=O)Nc1cc(-c2c(-c3cn(C)cn3)[nH]c3ncc(C(=O)OC(C)C)c(C)c23)ccc1C [Example 25, isopropyl 3-(3-acrylamido-4-methylphenyl)-4-methyl-2-(1-methyl-1 H-imidazol-4-yl)-1H-pyrrolo[2,3-b]pyridine-5-carboxylate] | 50 to 100 nM | 100 to 500 nM | ≤ 50 nM | – | 100 to 500 nM | 100 to 500 nM | – | 1000 to 10000 nM | 50 to 100 nM | ≤ 50 nM | ≤ 50 nM | ≤ 50 nM | 50 to 100 nM
9 | C=CC(=O)Nc1cc(-c2c(-c3cnn(C)c3)[nH]c3ncc(-c4cnn(C)c4)cc23)ccc1C [Example 26, N-(5-(2,5-bis(1-methyl-1H-pyrazol-4-yl)-1H-pyrrolo[2,3-b]pyridin-3-yl)-2-methylphenyl)acrylamide 2,2,2-trifluoroacetate] | ≤ 50 nM | 100 to 500 nM | ≤ 50 nM | – | 50 to 100 nM | 100 to 500 nM | – | 1000 to 10000 nM | ≤ 50 nM | ≤ 50 nM | ≤ 50 nM | ≤ 50 nM | 100 to 500 nM

Source: patent EP3868759A1, “2,3,5-SUBSTITUTED PYRROLO[2,3-B]PYRIDINES AS ERBB MODULATORS USEFUL FOR TREATING CANCER” (PearlRiver Bio GmbH, priority 2020, dated 2021)
